Details: Liquid; for speed of sound: Single path-length method; for mass density: Vibrating tube method

CCCCCCCCCCCCCCCC [hexadecane]
Details | mass density [kg/m3] | speed of sound [m/s]
290.65 K, 83 kPa | 775 | 1367.2
291.15 K, 83 kPa | 774.7 | 1365.3
291.65 K, 83 kPa | 774.4 | 1363.4
292.15 K, 83 kPa | 774 | 1361.5
292.65 K, 83 kPa | 773.6 | 1359.6
293.15 K, 83 kPa | 773.3 | 1357.7
298.15 K, 83 kPa | 769.8 | 1338.8
303.15 K, 83 kPa | 766.4 | 1320.2
308.15 K, 83 kPa | 762.9 | 1301.7
310 K, 1110 kPa | 761.74 | –
310 K, 2710 kPa | 762.85 | –
310 K, 5870 kPa | 765.01 | –
310 K, 10770 kPa | 768.25 | –
310 K, 15700 kPa | 771.38 | –
310 K, 20650 kPa | 774.41 | –
310 K, 25600 kPa | 777.3 | –
310 K, 34700 kPa | 782.46 | –
310 K, 36730 kPa | 783.55 | –
313.15 K, 83 kPa | 759.4 | 1283.4
318.15 K, 83 kPa | 756 | 1265.3
323.15 K, 83 kPa | 752.5 | 1247.4
328.15 K, 83 kPa | 749.1 | 1229.8
330 K, 1130 kPa | 748.39 | –
330 K, 2730 kPa | 749.66 | –
330 K, 5890 kPa | 752.03 | –
330 K, 10790 kPa | 755.61 | –
330 K, 15740 kPa | 759.04 | –
330 K, 20680 kPa | 762.35 | –
330 K, 25980 kPa | 765.74 | –
330 K, 36160 kPa | 771.9 | –
330 K, 38240 kPa | 773.11 | –
330 K, 45960 kPa | 777.44 | –
333.15 K, 83 kPa | 745.6 | 1212.3
338.15 K, 83 kPa | 742.2 | 1194.9
343.15 K, 83 kPa | 738.7 | 1177.9
350 K, 1020 kPa | 734.55 | –
350 K, 2630 kPa | 735.94 | –
350 K, 5790 kPa | 738.58 | –
350 K, 10710 kPa | 742.54 | –
350 K, 15650 kPa | 746.27 | –
350 K, 20600 kPa | 749.88 | –
350 K, 25560 kPa | 753.33 | –
350 K, 36140 kPa | 760.24 | –
350 K, 40130 kPa | 762.7 | –
370 K, 1030 kPa | 720.83 | –
370 K, 2620 kPa | 722.35 | –
370 K, 5780 kPa | 725.3 | –
370 K, 10710 kPa | 729.65 | –
370 K, 15660 kPa | 733.76 | –
370 K, 20610 kPa | 737.69 | –
370 K, 25580 kPa | 741.44 | –
370 K, 34010 kPa | 747.41 | –
370 K, 41340 kPa | 752.26 | –
390 K, 1040 kPa | 706.5 | –
390 K, 2630 kPa | 708.23 | –
390 K, 5790 kPa | 711.5 | –
390 K, 10690 kPa | 716.31 | –
390 K, 15650 kPa | 720.83 | –
390 K, 20600 kPa | 725.12 | –
390 K, 25550 kPa | 729.18 | –
390 K, 35160 kPa | 736.52 | –
390 K, 39900 kPa | 739.91 | –
390 K, 44320 kPa | 742.94 | –
390 K, 46900 kPa | 744.61 | –
410 K, 1080 kPa | 692.52 | –
410 K, 2680 kPa | 694.47 | –
410 K, 5830 kPa | 698.12 | –
410 K, 10750 kPa | 703.47 | –
410 K, 15700 kPa | 708.47 | –
410 K, 20630 kPa | 713.12 | –
410 K, 25570 kPa | 717.52 | –
410 K, 30420 kPa | 721.61 | –
410 K, 37220 kPa | 726.98 | –
410 K, 44820 kPa | 732.63 | –
410 K, 50700 kPa | 736.75 | –
430 K, 970 kPa | 677.73 | –
430 K, 2590 kPa | 679.9 | –
430 K, 5770 kPa | 684.04 | –
430 K, 10650 kPa | 689.93 | –
430 K, 15590 kPa | 695.44 | –
430 K, 20560 kPa | 700.57 | –
430 K, 25530 kPa | 705.37 | –
430 K, 30420 kPa | 709.84 | –
430 K, 39590 kPa | 717.56 | –
430 K, 44320 kPa | 721.28 | –
430 K, 48490 kPa | 724.39 | –
450 K, 960 kPa | 662.64 | –
450 K, 2560 kPa | 665.22 | –
450 K, 5750 kPa | 669.98 | –
450 K, 10620 kPa | 676.53 | –
450 K, 15590 kPa | 682.65 | –
450 K, 20560 kPa | 688.27 | –
450 K, 25530 kPa | 693.48 | –
450 K, 30800 kPa | 698.66 | –
450 K, 39150 kPa | 706.2 | –
450 K, 43400 kPa | 709.8 | –
450 K, 45310 kPa | 711.32 | –
470 K, 1070 kPa | 648.42 | –
470 K, 2660 kPa | 651.24 | –
470 K, 5770 kPa | 656.4 | –
470 K, 10730 kPa | 663.85 | –
470 K, 15690 kPa | 670.57 | –
470 K, 20640 kPa | 676.69 | –
470 K, 25530 kPa | 682.28 | –
470 K, 30470 kPa | 687.53 | –
470 K, 38870 kPa | 695.7 | –
470 K, 42790 kPa | 699.27 | –
470 K, 47790 kPa | 703.6 | –
